Molecules are shown by their SMILES. Where two headings read alike, the source gives them in different places.

The values that follow come from patent US9131690B2, “Macrocyclic picolinamides as fungicides” (Dow AgroSciences LLC, priority 2012, dated 2015).

Data set [1] relates to Puccinia triticina. Synonym: Puccinia recondite f. sp. tritici. The data set is described as follows: Fungicidal activity: Wheat Brown Rust (PUCCRT), wheat plants variety Yuma. In kind it is in vivo. The arrangement: key to PUCCRT 3DC Disease Control: A: 50-100; B: More than 0-Less than 50; C: Not Tested; D: No activity noticed in this bioassay. As to conditions: for pest or weed control at 100 ppm: Puccinia triticina; for PUCCRT 3DC Disease Control: 100 ppm. Here is the method: Evaluation of Fungicidal Activity: Wheat Brown Rust (Puccinia triticina. Synonym: Puccinia recondite f. sp. tritici; Bayer Code PUCCRT) Wheat plants (variety Yuma) were grown from seed in a greenhouse in 50% mineral soil/50% soil-less Metro mix until the first leaf was fully emerged, with 7-10 seedlings per pot. These plants were inoculated with an aqueous spore suspension of Puccinia recondite f. sp. tritici either prior to or after fungicide treatments. After inoculation the plants were kept in 100% relative humidity overnight to permit spores to germinate and infect the leaf. The plants were then transferred to a greenhouse set at 24 C for disease to develop.

Data set [2] has as its system Mycosphaerella graminicola; Anamorph: Septoria tritici. The data set is described as follows: Fungicidal activity: Leaf Blotch of Wheat (SEPTTR), wheat plants variety Yuma. In kind it is in vivo. The note with it: Zymoseptoria tritici. As for the experimental part:
Evaluation of Fungicidal Activity: Leaf Blotch of Wheat (Mycosphaerella graminicola; Anamorph: Septoria tritici; Bayer Code […]) Wheat plants (variety Yuma) were grown from seed in a greenhouse in 50% mineral soil/50% soil-less Metro mix until the first leaf was fully emerged, with 7-10 seedlings per pot. These plants were inoculated with an aqueous spore suspension of Septoria tritici either prior to or after fungicide treatments. After inoculation the plants were kept in 100% relative humidity (one day in a dark dew chamber followed by two to three days in a lighted dew chamber) to permit spores to germinate and infect the leaf. The plants were then transferred to a greenhouse at 20° C. for disease to develop.

Where [3] appears, read: 24 h, 1 Day Protectant, read-out: PUCCRT 1DP Disease Control.
[4] abbreviates: 72 h, 3 Day Curative, read-out: PUCCRT 3DC Disease Control.
The mark [5] stands for this setting: 24 h, 1 Day Protectant, read-out: SEPTTR 1DP Disease Control.
Setting [6] is: 72 h, 3 Day Curative, read-out: SEPTTR 3DC Disease Control.

Consider `CCC[C@H]1C(=O)OC[C@H](NC(=O)c2nccc(OC)c2OCOC(=O)C(C)C)C(=O)O[C@@H](C)[C@@H]1OC(=O)C(C)C` [Compound 34], for which the pest or weed control at 100 ppm in data set [1] (setting [3]), in data set [1] (setting [4]), in data set [2] (setting [5]) and in data set [2] (setting [6]) was 50 to 100% each time.

`COc1ccnc(C(=O)N[C@H]2COC(=O)[C@H](CC(=O)OC(C)C)[C@@H](OC(=O)C(C)C)[C@H](C)OC2=O)c1O` [Compound 49] registered a melting point of 169 to 170 °C. The pest or weed control at 100 ppm in data set [1] (setting [3]) is 50 to 100%. Besides, the pest or weed control at 100 ppm in data set [1] (setting [4]) fell in the range of 50 to 100%. Also, the pest or weed control at 100 ppm in data set [2] (setting [5]) was 50 to 100%. In addition, the pest or weed control at 100 ppm in data set [2] (setting [6]) is 50 to 100%.

Turning to `COc1ccnc(C(=O)N[C@H]2COC(=O)[C@H](CCc3cccnc3)[C@@H](OC(=O)C(C)C)[C@H](C)OC2=O)c1OCOC(=O)C(C)C` [Compound 31], the pest or weed control at 100 ppm in data set [1] (setting [3]) fell in the range of 50 to 100%; in data set [1] (setting [4]), 0 to 50%; in data set [2] (setting [5]), 0 to 50%; in data set [2] (setting [6]) it was 0 to 50%.

`COc1ccnc(C(=O)N[C@H]2COC(=O)[C@H](Cc3cccc(C(F)(F)F)c3)[C@@H](OC(=O)C(C)C)[C@H](C)OC2=O)c1OCOC(=O)C(C)C` [Compound 24]: the melting point was 100 to 103 °C. Further, the pest or weed control at 100 ppm in data set [1] (setting [3]) is 50 to 100%. Further, the pest or weed control at 100 ppm in data set [1] (setting [4]) is 50 to 100%. In addition, the pest or weed control at 100 ppm in data set [2] (setting [5]) was in the range of 50 to 100%. Also, the pest or weed control at 100 ppm in data set [2] (setting [6]) was 0 to 50%.

With `COc1ccnc(C(=O)N[C@H]2COC(=O)[C@H](CI)[C@@H](OC(=O)C(C)C)[C@H](C)OC2=O)c1O` [Compound 11], the melting point lay within 186 to 191 °C. The pest or weed control at 100 ppm in data set [1] (setting [3]) was 50 to 100%. For the same compound, in data set [1] (setting [4]), the pest or weed control at 100 ppm fell in the range of 50 to 100%. For the same compound, the pest or weed control at 100 ppm in data set [2] (setting [5]) fell in the range of 50 to 100%. Besides, the pest or weed control at 100 ppm in data set [2] (setting [6]) lay within 0 to 50%.

In the case of `C=CC[C@H]1C(=O)OC[C@H](NC(=O)c2nccc(OC)c2O)C(=O)O[C@@H](C)[C@@H]1OC(=O)C(C)C` [Compound 17], the melting point lay within 161 to 165 °C. In addition, the pest or weed control at 100 ppm in data set [1] (setting [3]) fell in the range of 50 to 100%. Besides, the pest or weed control at 100 ppm in data set [1] (setting [4]) was 50 to 100%. Also, the pest or weed control at 100 ppm in data set [2] (setting [5]) was in the range of 50 to 100%. Besides, the pest or weed control at 100 ppm in data set [2] (setting [6]) lay within 0 to 50%.

`COc1ccnc(C(=O)N[C@H]2COC(=O)[C@H](Cc3cccnc3)[C@@H](OC(=O)C(C)C)[C@H](C)OC2=O)c1O` [Compound 2] registered a melting point of 148 to 155 °C. The pest or weed control at 100 ppm in data set [1] (setting [3]) lay in the range of 50 to 100%. Moreover, the pest or weed control at 100 ppm in data set [1] (setting [4]) fell in the range of 50 to 100%. For the same compound, in data set [2] (setting [5]), the pest or weed control at 100 ppm fell in the range of 50 to 100%. In data set [2] (setting [6]), the pest or weed control at 100 ppm fell in the range of 50 to 100%.

With `COCC[C@H]1C(=O)OC[C@H](NC(=O)c2nccc(OC)c2O)C(=O)O[C@@H](C)[C@@H]1OC(=O)C(C)C` [Compound 44, (3S,6S,7R,8R)-3-(3-hydroxy-4-methoxypicolinamido)-8-(2-methoxyethyl)-6-methyl-4,9-dioxo-1,5-dioxonan-7-yl isobutyrate], the pest or weed control at 100 ppm in data set [1] (setting [3]), in data set [1] (setting [4]), in data set [2] (setting [5]) and in data set [2] (setting [6]) was 50 to 100% throughout.

With `CCCCCCC[C@H]1C(=O)OC[C@H](NC(=O)c2nccc(OC)c2OCOC(=O)C(C)C)C(=O)O[C@@H](C)[C@@H]1OC(=O)C(C)C` [Compound 33], the pest or weed control at 100 ppm in data set [1] (setting [3]), in data set [1] (setting [4]), in data set [2] (setting [5]) and in data set [2] (setting [6]) was 50 to 100% in each case.

As for `COc1ccnc(C(=O)N[C@H]2COC(=O)[C@H](CCOC(=O)C(C)(C)C)[C@@H](OC(=O)C(C)C)[C@H](C)OC2=O)c1O` [Compound 37], the pest or weed control at 100 ppm in data set [1] (setting [3]) is 50 to 100%; in data set [1] (setting [4]), 0 to 50%; in data set [2] (setting [5]), 50 to 100%; in data set [2] (setting [6]) it was 0 to 50%.

As for `COCC[C@H]1C(=O)OC[C@H](NC(=O)c2nccc(OC)c2OCOC(=O)C(C)C)C(=O)O[C@@H](C)[C@@H]1OC(=O)C(C)C` [Compound 28], the pest or weed control at 100 ppm in data set [1] (setting [3]), in data set [1] (setting [4]), in data set [2] (setting [5]) and in data set [2] (setting [6]) was 50 to 100% in each case.

In the case of `COc1ccnc(C(=O)N[C@H]2COC(=O)[C@H](CCOC(=O)c3cc(OC)c(OC)c(OC)c3)[C@@H](OC(=O)C(C)C)[C@H](C)OC2=O)c1O` [Compound 41], the “PUCCRT 3DC Disease Control” value in data set [1] (3 Day Curative) is “D”. Moreover, the pest or weed control at 100 ppm lay within 50 to 100% in data set [1] (setting [3]), 0 to 50% in data set [2] (setting [5]) and 0 to 50% in data set [2] (setting [6]).

Consider `COc1ccnc(C(=O)N[C@H]2COC(=O)[C@H](CCC3CCCCC3)[C@@H](OC(=O)C(C)C)[C@H](C)OC2=O)c1O` [Compound 62], for which the pest or weed control at 100 ppm in data set [1] (setting [3]) was in the range of 50 to 100%; in data set [1] (setting [4]) it was 0 to 50%; in data set [2] (setting [5]), 50 to 100%; in data set [2] (setting [6]), 0 to 50%.

Take `COc1ccc(C[C@H]2C(=O)OC[C@H](NC(=O)c3nccc(OC)c3O)C(=O)O[C@@H](C)[C@@H]2OC(=O)C(C)C)cc1` [Compound 8]: the pest or weed control at 100 ppm in data set [1] (setting [3]) was in the range of 50 to 100%; in data set [1] (setting [4]), 50 to 100%; in data set [2] (setting [5]), 50 to 100%; in data set [2] (setting [6]), 0 to 50%.

Consider `COc1ccnc(C(=O)N[C@H]2COC(=O)[C@H](CC(=O)OC(C)(C)C)[C@@H](OC(=O)C(C)C)[C@H](C)OC2=O)c1OCOC(=O)C(C)C` [Compound 30], for which the pest or weed control at 100 ppm in data set [1] (setting [3]), in data set [1] (setting [4]), in data set [2] (setting [5]) and in data set [2] (setting [6]) was 50 to 100% each time.

Regarding `COc1ccnc(C(=O)N[C@H]2COC(=O)[C@H](CCOC(=O)C(C)C)[C@@H](OC(=O)C(C)C)[C@H](C)OC2=O)c1O` [Compound 36], the “PUCCRT 3DC Disease Control” value in data set [1] (3 Day Curative) is recorded as “D”. For the same compound, the pest or weed control at 100 ppm lay within 50 to 100% in data set [1] (setting [3]), 50 to 100% in data set [2] (setting [5]) and 0 to 50% in data set [2] (setting [6]).

`COc1ccnc(C(=O)N[C@H]2COC(=O)[C@H](CCOCc3ccccc3)[C@@H](OC(=O)C(C)C)[C@H](C)OC2=O)c1OCOC(=O)C(C)C` [Compound 29]: the pest or weed control at 100 ppm in data set [1] (setting [3]) was in the range of 50 to 100%; in data set [1] (setting [4]), 50 to 100%; in data set [2] (setting [5]), 50 to 100%; in data set [2] (setting [6]), 0 to 50%.

Regarding `COc1ccnc(C(=O)N[C@H]2COC(=O)[C@H](CCc3ccccc3)[C@@H](OC(=O)C(C)C)[C@H](C)OC2=O)c1OCOC(=O)C(C)C` [Compound 32], the pest or weed control at 100 ppm in data set [1] (setting [3]), in data set [1] (setting [4]), in data set [2] (setting [5]) and in data set [2] (setting [6]) was 50 to 100% in each case.

Consider `COc1ccnc(C(=O)N[C@H]2COC(=O)[C@H](Cc3ccc(F)cc3)[C@@H](OC(=O)C(C)C)[C@H](C)OC2=O)c1OCOC(=O)C(C)C` [Compound 20], for which the pest or weed control at 100 ppm in data set [1] (setting [3]), in data set [1] (setting [4]), in data set [2] (setting [5]) and in data set [2] (setting [6]) was 50 to 100% throughout.

For the compound `COc1ccnc(C(=O)N[C@H]2COC(=O)[C@H](Cc3ccc(F)cc3F)[C@@H](OC(=O)C(C)C)[C@H](C)OC2=O)c1OCOC(=O)C(C)C` [Compound 21], the pest or weed control at 100 ppm in data set [1] (setting [3]), in data set [1] (setting [4]), in data set [2] (setting [5]) and in data set [2] (setting [6]) was 50 to 100% in each case.
